Laboratory results published in patent publication US11718622B2, “Heterocyclic adenosine receptor antagonists” (Exelixis, Inc., priority 2020, dated 2023).

Key:
[1] = biological target: Adenosine A2a (ADORA2A) receptor (Homo sapiens (Human), UniProt P29274); test: ADORA2A Receptor Binding Assay; settings: radioligand binding, membrane stock
Method in brief: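 Test compounds incubated with A2a receptor membranes and a ³H-labelled radioligand for 2 hours at room temperature, then filtered through PEI-presoaked GF/C plates and washed. Filter-bound ³H counted by scintillation; % inhibition calculated from background-subtracted signal relative to high control.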

[2] = biological target: Adenosine A2B (ADORA2B) receptor (Homo sapiens (Human), UniProt P29275); test: ADORA2B Receptor Binding Assay; settings: radioligand binding, membrane stock
Method in brief: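 Radioligand competition binding on human A2B receptor membranes, 1 h at room temperature, then filtration through BSA-presoaked GF/C filters and ³H counting by scintillation. Inhibition expressed as % of high control after background subtraction.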

Chain of Adenosine A2a (ADORA2A) receptor (P29274 whole entry): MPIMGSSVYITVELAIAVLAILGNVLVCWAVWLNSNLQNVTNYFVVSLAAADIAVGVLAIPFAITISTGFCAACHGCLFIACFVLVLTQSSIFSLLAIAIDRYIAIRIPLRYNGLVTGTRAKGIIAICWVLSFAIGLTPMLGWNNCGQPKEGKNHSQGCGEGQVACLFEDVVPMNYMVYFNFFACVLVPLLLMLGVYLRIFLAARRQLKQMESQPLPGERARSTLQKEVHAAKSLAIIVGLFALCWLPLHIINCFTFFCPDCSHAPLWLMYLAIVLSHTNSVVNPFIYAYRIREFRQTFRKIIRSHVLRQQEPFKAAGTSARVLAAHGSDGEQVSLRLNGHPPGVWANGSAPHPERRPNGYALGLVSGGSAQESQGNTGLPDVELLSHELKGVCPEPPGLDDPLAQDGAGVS
Chain of Adenosine A2B (ADORA2B) receptor (P29275 whole entry): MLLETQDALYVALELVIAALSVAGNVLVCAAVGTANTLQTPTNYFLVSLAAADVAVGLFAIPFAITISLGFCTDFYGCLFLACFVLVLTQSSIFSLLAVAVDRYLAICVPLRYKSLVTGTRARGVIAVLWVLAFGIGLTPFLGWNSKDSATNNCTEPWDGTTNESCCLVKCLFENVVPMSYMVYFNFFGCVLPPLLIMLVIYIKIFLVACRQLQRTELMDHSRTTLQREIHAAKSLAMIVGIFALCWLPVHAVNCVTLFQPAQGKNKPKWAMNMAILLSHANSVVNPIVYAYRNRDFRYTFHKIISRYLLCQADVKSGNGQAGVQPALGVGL

IC50 [1] | IC50 [2] | SMILES
> 1000 nM | > 1000 nM | Cc1cn2c(Cl)c(N)nc(-c3ccccc3C)c2n1 [Compound 216, 5-chloro-2-methyl-8-(2-methylphenyl)imidazo[1,2-a]pyrazin-6-amine]
> 1000 nM | > 1000 nM | CC(=O)Nc1cc2nc(C)nn2c(-c2ccc(S(C)(=O)=O)cc2)n1 [Compound 101, N-[2-methyl-5-(4-methylsulfonylphenyl)-[1,2,4]triazolo[1,5-c]pyrimidin-7-yl]acetamide]
< 10 nM | 10 to 100 nM | Cc1ccc(-c2nc(NC(=O)C3CC3)cc3nc(C4CC4)nn23)o1 [Compound 62, N-[2-cyclopropyl-5-(5-methylfuran-2-yl)-[1,2,4]triazolo[1,5-c]pyrimidin-7-yl]cyclopropanecarboxamide]
> 1000 nM | > 1000 nM | COc1ccc(-c2nc(NC(=O)OC(C)(C)C)cc3nc(C)nn23)cc1 [Compound 112, tert-butyl N-[5-(4-methoxyphenyl)-2-methyl-[1,2,4]triazolo[1,5-c]pyrimidin-7-yl]carbamate]
10 to 100 nM | 10 to 100 nM | COc1ccc(-c2nc(NC(=O)C3CC3)cc3nc(C)nn23)cc1 [Compound 111, N-[5-(4-methoxyphenyl)-2-methyl-[1,2,4]triazolo[1,5-c]pyrimidin-7-yl]cyclopropanecarboxamide]
< 10 nM | 10 to 100 nM | CC(=O)Nc1cc2nc(C3COC3)nn2c(-c2ccc(C)o2)n1 [Compound 109, N-[5-(5-methylfuran-2-yl)-2-(oxetan-3-yl)-[1,2,4]triazolo[1,5-c]pyrimidin-7-yl]acetamide]
10 to 100 nM | 100 to 1000 nM | CCOC(=O)Nc1cn2cc(C)nc2c(-c2ccco2)n1 [Compound 219, ethyl N-[8-(furan-2-yl)-2-methylimidazo[1,2-a]pyrazin-6-yl]carbamate]
100 to 1000 nM | > 1000 nM | CC(=O)Nc1cc2nc(C3CNC3)nn2c(-c2ccco2)n1 [Compound 122, N-[2-(azetidin-3-yl)-5-(furan-2-yl)-[1,2,4]triazolo[1,5-c]pyrimidin-7-yl]acetamide]
< 10 nM | < 10 nM | CC(=O)Nc1cn2nc(C)nc2c(-c2ccco2)n1 [Compound 179, N-[8-(furan-2-yl)-2-methyl-[1,2,4]triazolo[1,5-a]pyrazin-6-yl]acetamide]
< 10 nM | 10 to 100 nM | Cc1cn2cc(NC(=O)C(F)F)nc(-c3ccco3)c2n1 [Compound 221, 2,2-difluoro-N-[8-(furan-2-yl)-2-methylimidazo[1,2-a]pyrazin-6-yl]acetamide]
> 1000 nM | > 1000 nM | CC(=O)Nc1cc2nc(C)nn2c(-c2cccc(C(C)=O)c2)n1 [Compound 93, N-[5-(3-acetylphenyl)-2-methyl-[1,2,4]triazolo[1,5-c]pyrimidin-7-yl]acetamide]
< 10 nM | 10 to 100 nM | Nc1nc(-c2ccccc2)n2nc(C(F)F)nc2c1Cl [Compound 160, 8-chloro-2-(difluoromethyl)-5-phenyl-[1,2,4]triazolo[1,5-c]pyrimidin-7-amine]
< 10 nM | 10 to 100 nM | Cc1ccc(-c2nc(NC(=O)C3CC3)cn3cc(CF)nc23)o1 [Compound 210, N-[2-(fluoromethyl)-8-(5-methylfuran-2-yl)imidazo[1,2-a]pyrazin-6-yl]cyclopropanecarboxamide]
> 1000 nM | > 1000 nM | Cc1nc2c3cccnc3nc(-c3ccco3)n2n1 [Compound 137, 7-(furan-2-yl)-4-methyl-3,5,6,8,10-pentazatricyclo[7.4.0.0^2,6]trideca-1(9),2,4,7,10,12-hexaene]
< 10 nM | 10 to 100 nM | Cc1ccc(-c2nc(NC(=O)C3CC3)cc3nc(C4CCC4)nn23)o1 [Compound 64, N-[2-cyclobutyl-5-(5-methylfuran-2-yl)-[1,2,4]triazolo[1,5-c]pyrimidin-7-yl]cyclopropanecarboxamide]
< 10 nM | 10 to 100 nM | Cc1cn2cc(NC(=O)C3CC3)nc(-c3ccco3)c2n1 [Compound 208, N-[8-(furan-2-yl)-2-methylimidazo[1,2-a]pyrazin-6-yl]cyclopropanecarboxamide]
100 to 1000 nM | > 1000 nM | COc1ccc(-c2nc(N)cc3nc(C)nn23)cc1 [Compound 115, 5-(4-methoxyphenyl)-2-methyl-[1,2,4]triazolo[1,5-c]pyrimidin-7-amine]
< 10 nM | < 10 nM | Cc1ccc(-c2nc(NC(=O)C3CC3)cn3nc(C(C)C)nc23)o1 [Compound 173, N-[8-(5-methylfuran-2-yl)-2-propan-2-yl-[1,2,4]triazolo[1,5-a]pyrazin-6-yl]cyclopropanecarboxamide]
10 to 100 nM | 100 to 1000 nM | CC(=O)c1cccc(-c2nc(N)c(Cl)c3nc(C)nn23)c1 [Compound 105, 1-[3-(7-amino-8-chloro-2-methyl-[1,2,4]triazolo[1,5-c]pyrimidin-5-yl)phenyl]ethanone]

IC50 [1] | IC50 [2] | SMILES
< 10 nM | 10 to 100 nM | Cc1nc2cc(NC(=O)C3CC3)nc(-c3cccc(F)c3)n2n1 [Compound 131, N-[5-(3-fluorophenyl)-2-methyl-[1,2,4]triazolo[1,5-c]pyrimidin-7-yl]cyclopropanecarboxamide]
10 to 100 nM | 100 to 1000 nM | Cc1nc2cc(NC(=O)C(F)(F)F)nc(-c3ccco3)n2n1 [Compound 143, 2,2,2-trifluoro-N-[5-(furan-2-yl)-2-methyl-[1,2,4]triazolo[1,5-c]pyrimidin-7-yl]acetamide]
> 1000 nM | > 1000 nM | Cc1nc2cc(NC(=O)C3CC3)nc(-c3ccc(S(=O)(=O)N(C)C)cc3)n2n1 [Compound 116, N-[5-[4-(dimethylsulfamoyl)phenyl]-2-methyl-[1,2,4]triazolo[1,5-c]pyrimidin-7-yl]cyclopropanecarboxamide]
< 10 nM | 10 to 100 nM | Cc1nc2cc(NC(=O)C3CCC3)nc(-c3ccc(C)o3)n2n1 [Compound 10, N-[2-methyl-5-(5-methylfuran-2-yl)-[1,2,4]triazolo[1,5-c]pyrimidin-7-yl]cyclobutanecarboxamide]
< 10 nM | < 10 nM | Cc1ccc(-c2nc(NC(=O)C3CC3)cn3nc(C(F)F)nc23)o1 [Compound 185, N-[2-(difluoromethyl)-8-(5-methylfuran-2-yl)-[1,2,4]triazolo[1,5-a]pyrazin-6-yl]cyclopropanecarboxamide]
> 1000 nM | > 1000 nM | Cc1nc2c3cccnc3nc(-c3ccc(C)o3)n2n1 [Compound 136, 4-methyl-7-(5-methylfuran-2-yl)-3,5,6,8,10-pentazatricyclo[7.4.0.0^2,6]trideca-1(9),2,4,7,10,12-hexaene]
100 to 1000 nM | 100 to 1000 nM | COc1ccc(-c2nc(NC(C)=O)cc3nc(C)nn23)cc1 [Compound 113, N-[5-(4-methoxyphenyl)-2-methyl-[1,2,4]triazolo[1,5-c]pyrimidin-7-yl]acetamide]
< 10 nM | < 10 nM | Cc1ccc(-c2nc(NC(=O)C3CC3)cn3ncnc23)o1 [Compound 167, N-[8-(5-methylfuran-2-yl)-[1,2,4]triazolo[1,5-a]pyrazin-6-yl]cyclopropanecarboxamide]
10 to 100 nM | 10 to 100 nM | CCCNC(=O)Nc1cc2nc(C)nn2c(-c2ccco2)n1 [Compound 154, 1-[5-(furan-2-yl)-2-methyl-[1,2,4]triazolo[1,5-c]pyrimidin-7-yl]-3-propylurea]
10 to 100 nM | 10 to 100 nM | Cc1nc2c(Cl)c(N)nc(-c3ccc(Cl)cc3)n2n1 [Compound 77, 8-chloro-5-(4-chlorophenyl)-2-methyl-[1,2,4]triazolo[1,5-c]pyrimidin-7-amine]
< 10 nM | < 10 nM | O=C(Nc1cc2nc(C(F)(F)F)nn2c(-c2ccco2)n1)C1CC1 [Compound 68, N-[5-(furan-2-yl)-2-(trifluoromethyl)-[1,2,4]triazolo[1,5-c]pyrimidin-7-yl]cyclopropanecarboxamide]
100 to 1000 nM | 100 to 1000 nM | Cc1ccc(-c2nc(N)c(Cl)n3cc(C)nc23)cc1 [Compound 214, 5-chloro-2-methyl-8-(4-methylphenyl)imidazo[1,2-a]pyrazin-6-amine]
10 to 100 nM | 100 to 1000 nM | Cc1ccc(-c2nc(N)cn3cc(C(F)(F)F)nc23)o1 [Compound 195, 8-(5-methylfuran-2-yl)-2-(trifluoromethyl)imidazo[1,2-a]pyrazin-6-amine]
< 10 nM | 10 to 100 nM | Cc1ccc(-c2nc(NC(=O)C3CC3)cn3cc(CO)nc23)o1 [Compound 209, N-[2-(hydroxymethyl)-8-(5-methylfuran-2-yl)imidazo[1,2-a]pyrazin-6-yl]cyclopropanecarboxamide]
< 10 nM | 10 to 100 nM | CC(=O)Nc1cc2nc(C(F)(F)F)nn2c(-c2ccco2)n1 [Compound 59, N-[5-(furan-2-yl)-2-(trifluoromethyl)-[1,2,4]triazolo[1,5-c]pyrimidin-7-yl]acetamide]
< 10 nM | 10 to 100 nM | Cc1ccc(-c2nc3[nH]ncc3c3nc(C(C)C)nn23)o1 [Compound 121, 7-(5-methylfuran-2-yl)-4-propan-2-yl-3,5,6,8,10,11-hexazatricyclo[7.3.0.0^2,6]dodeca-1(9),2,4,7,11-pentaene]
< 10 nM | 10 to 100 nM | CC(=O)Nc1cn2cc(C)nc2c(-c2ccc(C)o2)n1 [Compound 205, N-[2-methyl-8-(5-methylfuran-2-yl)imidazo[1,2-a]pyrazin-6-yl]acetamide]
< 10 nM | < 10 nM | Cc1nc2cc(NC(=O)C3CC3)nc(-c3ccc(F)o3)n2n1 [Compound 85, N-[5-(5-fluorofuran-2-yl)-2-methyl-[1,2,4]triazolo[1,5-c]pyrimidin-7-yl]cyclopropanecarboxamide]
